According to patent publication US10807986B2, “Fused pyrimidine compound or salt thereof” (TAIHO PHARMACEUTICAL CO., LTD., priority 2016, dated 2020):
Where two headings read alike, the source gives them in different places.

Assays:
[1] = test system: TT cells (human thyroid cancer cell line with RET activating mutation); experiment: In vivo antitumor effect, mice subcutaneously implanted with TT cells; design: species or system BALB/cA Jcl-nu/nu male mice
Protocol: Human thyroid cancer cell lines (TT) were subcutaneously implanted into the right frank of 6- to 7-week-old BALB/cA Jcl-nu/nu male mice. After about 2 to 3 weeks from the cell implantation, the length (mm) and the width (mm) of tumors found in mouse bodies were measured. […] The day on which the mice were divided into groups was determined to be the “grouping day” (day 0 or 1).
A control group was administered a solvent (0.5% HPMC/0.1N HCl).
To determine the index of the antitumor effect, TV of each drug-administrated group was measured on day 15, and the tumor volume on day 15 relative to the tumor volume on the grouping day (day 0 or 1) (relative tumor volume: RTV) and T/C (%) were calculated from the following equations, and the antitumor effect was evaluated. […] TV (mm^3)=(length×width^2)/2 RTV=(TV on day 15)/(TV on day 0 or day 1) T/C(%)=(the mean RTV of a test compound treatment group)/(the mean RTV of the control group)×100

[2] = mouse, microsomes, 0.5 h, 1 μM
[3] = Evaluation of stability in liver microsome; conditions: mouse liver microsome 0.25 mg/mL, test compound 1 μM, 37° C., 30 minutes
[4] = 100 mg/kg/day oral for 14 days, day 15, Table 54

COCc1ccc(NC(=O)c2c(C#CCN3CCOCC3)n(C3(C)CC3)c3ncnc(N)c23)cc1 [Example 85, 4-amino-N-[4-(methoxymethyl)phenyl]-7-(1-methylcyclopropyl)-6-(3-morpholinoprop-1-yn-1-yl)-7H-pyrrolo[2,3-d]pyrimidine-5-carboxamide]
T/C (%) [1, 4]: 23%
TV (mm^3) Day 15 Mean ± SE [1, 4]: 139.42 mm^3
RTV Day 15 Mean ± SE ([1]; 100 mg/kg/day oral for 14 days, day 15 relative to day 0, Table 54): 0.87
TV (mm^3) Day 0 Mean ± SE ([1]; 100 mg/kg/day oral, grouping day (day 0), Table 54): 169.45 mm^3

C/C=C/c1ccc(NC(=O)c2c(OCC)n(C3(C)CC3)c3ncnc(N)c23)cc1 [Example 117, (E)-4-amino-6-ethoxy-7-(1-methylcyclopropyl)-N-(4-(prop-1-en-1-yl)phenyl)-7H-pyrrolo[2,3-d]pyrimidine-5-carboxamide]
Remaining (%) [2]: 53%

COCc1ccc(NC(=O)c2c(C#CC3CCOCC3)n(C3(C)CC3)c3ncnc(N)c23)cc1F [Example 205, 4-amino-N-(3-fluoro-4-(methoxymethyl)phenyl)-7-(1-methylcyclopropyl)-6-((tetrahydro-2H-pyran-4-yl)ethynyl)-7H-pyrrolo[2,3-d]pyrimidine-5-carboxamide]
Remaining (%) [3]: 58%

COCc1ccc(NC(=O)c2c(C#CCN3CCOCC3)n(C3(C)CC3)c3ncnc(N)c23)cc1F [Example 206, 4-amino-N-(3-fluoro-4-(methoxymethyl)phenyl)-7-(1-methylcyclopropyl)-6-(3-morpholinoprop-1-yn-1-yl)-7H-pyrrolo[2,3-d]pyrimidine-5-carboxamide]
Remaining (%) [3]: 77%

CCc1c(C(=O)Nc2ccc(COC)cc2)c2c(N)ncnc2n1C1(C)CC1 [Example 207, 4-amino-6-ethyl-N-(4-(methoxymethyl)phenyl)-7-(1-methylcyclopropyl)-7H-pyrrolo[2,3-d]pyrimidine-5-carboxamide]
Remaining (%) [3]: 72%
